The subject of one test is MEF. In words: SAR analysis of small molecule cytotoxicity of MazEF TA System activators in embryonic fibroblast (MEF) cells. [Related pubchem assays (depositor defined):AID504720, AID504743]. Particulars: Mus musculus. Format: functional.
Test [1] deals with T1, Endoribonuclease toxin MazF (Escherichia coli K-12, UniProt P0AE70).
T1 sequence (P0AE70 whole entry): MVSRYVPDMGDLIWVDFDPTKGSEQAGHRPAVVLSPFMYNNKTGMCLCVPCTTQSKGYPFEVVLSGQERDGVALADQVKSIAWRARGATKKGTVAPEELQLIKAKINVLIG
In words: fluorescent RNA oligo signal without MazF, dose response, counter-screen for MazEF activator project, biochemical, fluorescence, single-stranded RNase substrate (AID 588502). Format: functional.

In test [2] the target is T1, Endoribonuclease toxin MazF. In words: MazF toxin RNase activators, dose response, biochemical, fluorescence, single-stranded RNA substrate, uHTS hits (AID 588481). Format: functional.
Test [3] has the same target. In words: SAR analysis of small molecule activators of the MazEF TA System via a fluorescence-based single-stranded RNase assay counterscreen. [Related pubchem assays (depositor defined):AID504720, AID504743]. Format: functional.
The target is the same in test [4]. In words: MazF endoribonuclease activators, SAR follow-up, biochemical, fluorescence, single-stranded RNA substrate (AID 588603). The test is classed as functional.
In test [5] the target is Nuclear receptor subfamily 0 group B member 1 (Homo sapiens, UniProt P51843). In words: Luminescence-based cell-based high throughput dose response assay for inhibitors of the orphan nuclear receptor subfamily 0, group B, member 1 (DAX1; NR0B1). [Related pubchem assays (depositor defined):AID504766, AID504790]. Format: functional.
Sequence of Nuclear receptor subfamily 0 group B member 1 (P51843 whole entry): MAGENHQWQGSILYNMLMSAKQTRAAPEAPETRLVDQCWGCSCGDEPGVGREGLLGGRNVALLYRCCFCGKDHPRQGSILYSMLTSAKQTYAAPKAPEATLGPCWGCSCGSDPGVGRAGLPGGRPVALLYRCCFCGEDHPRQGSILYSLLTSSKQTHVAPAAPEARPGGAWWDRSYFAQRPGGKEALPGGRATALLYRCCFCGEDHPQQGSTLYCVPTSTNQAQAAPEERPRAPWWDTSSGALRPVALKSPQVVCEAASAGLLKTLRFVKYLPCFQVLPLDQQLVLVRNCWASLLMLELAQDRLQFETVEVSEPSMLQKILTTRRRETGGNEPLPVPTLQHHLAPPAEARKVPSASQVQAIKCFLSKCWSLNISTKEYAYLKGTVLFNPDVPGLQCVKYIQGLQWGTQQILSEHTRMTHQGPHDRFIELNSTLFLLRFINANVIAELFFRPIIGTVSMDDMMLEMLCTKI
The subject of test [6] is HEK293. Kind of test: cells. The test is classed as functional, cell-based. To be noted: Homo sapiens.
In another test the target is T2, ORF 73 (Human herpesvirus 8, UniProt O40947).
T2 sequence (O40947 whole entry): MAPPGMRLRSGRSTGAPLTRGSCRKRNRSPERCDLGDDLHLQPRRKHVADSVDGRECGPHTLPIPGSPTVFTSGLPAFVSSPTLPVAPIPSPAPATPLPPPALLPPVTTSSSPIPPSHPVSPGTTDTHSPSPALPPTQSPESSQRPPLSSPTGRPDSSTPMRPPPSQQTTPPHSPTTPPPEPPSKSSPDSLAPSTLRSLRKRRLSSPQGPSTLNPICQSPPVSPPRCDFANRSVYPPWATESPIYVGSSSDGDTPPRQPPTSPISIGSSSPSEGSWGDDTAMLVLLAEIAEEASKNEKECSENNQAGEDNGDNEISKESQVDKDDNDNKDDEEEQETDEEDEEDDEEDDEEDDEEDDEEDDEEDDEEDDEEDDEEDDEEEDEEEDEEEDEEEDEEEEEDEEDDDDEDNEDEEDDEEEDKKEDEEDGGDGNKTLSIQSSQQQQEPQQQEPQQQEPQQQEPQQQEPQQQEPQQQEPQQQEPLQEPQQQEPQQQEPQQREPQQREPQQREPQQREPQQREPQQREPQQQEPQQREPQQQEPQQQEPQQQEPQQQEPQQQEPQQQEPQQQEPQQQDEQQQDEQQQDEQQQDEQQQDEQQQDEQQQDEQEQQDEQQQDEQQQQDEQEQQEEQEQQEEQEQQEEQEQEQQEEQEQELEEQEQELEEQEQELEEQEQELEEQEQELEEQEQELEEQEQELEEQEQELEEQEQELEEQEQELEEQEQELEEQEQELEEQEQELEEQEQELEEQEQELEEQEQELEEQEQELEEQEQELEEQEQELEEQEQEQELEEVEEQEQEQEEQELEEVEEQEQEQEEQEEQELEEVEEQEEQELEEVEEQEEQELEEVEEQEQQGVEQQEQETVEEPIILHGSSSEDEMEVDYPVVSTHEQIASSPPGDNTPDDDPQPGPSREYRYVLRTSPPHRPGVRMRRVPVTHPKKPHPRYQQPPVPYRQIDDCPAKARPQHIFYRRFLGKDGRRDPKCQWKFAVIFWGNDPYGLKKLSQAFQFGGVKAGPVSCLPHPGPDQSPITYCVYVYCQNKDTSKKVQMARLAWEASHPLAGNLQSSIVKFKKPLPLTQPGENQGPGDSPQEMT
Kind of test: inhibitors of C-LANA binding to LBS DNA, dose response, biochemical, fluorescence polarization, cherry-picked samples (AID 504725).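 Also: fluorescence polarization of a labeled DNA duplex reporting LANA DNA binding; potency is for inhibitors that block LANA binding to the DNA.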 Also on record: species or system Human gammaherpesvirus 8.

Test [7] has as its target UDP-galactopyranose mutase (Mycobacterium tuberculosis, UniProt P9WIQ1). In words: Inhibitors of Mycobacterium tuberculosis UDP-galactopyranose mutase (UGM) enzyme Measured in Biochemical System Using Plate Reader - 2105-02_Inhibitor_Dose_CherryPick_Activity. [Related pubchem assays (depositor defined):AID504439].
The test system of test [8] is HEK293. In words: HEK cell cytotoxicity by LDH release, dose response, cytotoxicity control for IDE activator project, fluorescence, HEK cells (AID 588440).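 Also: cytotoxicity by LDH release measuring loss of membrane integrity.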 The test is classed as functional, cell-based. To be noted: Homo sapiens.
Test [9] has as its target T3, Insulin-degrading enzyme (Homo sapiens, UniProt P14735).
T3 sequence (P14735 whole entry): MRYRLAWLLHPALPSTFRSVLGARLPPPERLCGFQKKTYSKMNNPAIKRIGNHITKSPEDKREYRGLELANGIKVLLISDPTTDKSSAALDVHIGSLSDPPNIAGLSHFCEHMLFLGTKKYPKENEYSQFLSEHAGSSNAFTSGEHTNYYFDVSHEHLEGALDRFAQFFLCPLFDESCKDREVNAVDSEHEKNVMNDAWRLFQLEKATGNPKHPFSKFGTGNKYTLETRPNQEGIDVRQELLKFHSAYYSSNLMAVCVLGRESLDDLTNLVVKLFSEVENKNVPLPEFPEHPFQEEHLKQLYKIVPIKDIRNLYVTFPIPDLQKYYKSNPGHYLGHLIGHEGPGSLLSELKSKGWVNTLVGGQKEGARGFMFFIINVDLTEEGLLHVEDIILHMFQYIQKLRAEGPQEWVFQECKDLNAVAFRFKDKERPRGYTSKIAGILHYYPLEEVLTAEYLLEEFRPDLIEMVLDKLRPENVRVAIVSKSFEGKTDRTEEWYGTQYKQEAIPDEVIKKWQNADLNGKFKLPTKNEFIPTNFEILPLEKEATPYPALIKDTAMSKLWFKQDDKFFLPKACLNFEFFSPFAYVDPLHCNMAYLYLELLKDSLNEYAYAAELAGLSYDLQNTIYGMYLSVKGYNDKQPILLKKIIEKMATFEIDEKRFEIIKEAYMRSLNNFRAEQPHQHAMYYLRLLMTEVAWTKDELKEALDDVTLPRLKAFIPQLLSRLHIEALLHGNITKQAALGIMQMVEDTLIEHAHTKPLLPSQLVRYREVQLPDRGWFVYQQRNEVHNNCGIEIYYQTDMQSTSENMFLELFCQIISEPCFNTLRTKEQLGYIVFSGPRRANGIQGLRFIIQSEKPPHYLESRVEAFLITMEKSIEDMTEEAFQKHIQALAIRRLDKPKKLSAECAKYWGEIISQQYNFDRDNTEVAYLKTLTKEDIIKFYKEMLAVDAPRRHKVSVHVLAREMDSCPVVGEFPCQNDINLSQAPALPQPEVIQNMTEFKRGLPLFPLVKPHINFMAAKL
Kind of test: activators of endogenous IDE in HEK cells, dose response, cell-based, fluorescence polarization (AID 588439). The test is classed as functional. On the technique in general: Fluorescence polarisation rises when a labelled molecule tumbles more slowly, as on binding a larger partner.

The target of another test is Troponin, cardiac muscle (Homo sapiens, UniProt P19429+P45379+P63316). In words: Fluorescence-based biochemical high throughput dose response assay for activators of the calcium sensitivity of cardiac Regulated Thin Filaments (RTF). [Related pubchem assays (depositor defined):AID493008, AID493018, AID504382, AID504383]. The test is classed as protein-complex assay.

The target in test [10] is T4, Fibrinogen beta chain (Homo sapiens, UniProt P02675). In words: Fluorescence polarization-based biochemical high throughput dose response assay to identify inhibitors that disrupt the binding of a cyclic peptide (Tn7) to the fibrin proteolytic product D-Dimer and fragment E complex [DD(E )].
T4 sequence (P02675 whole entry, the tested form may be a part): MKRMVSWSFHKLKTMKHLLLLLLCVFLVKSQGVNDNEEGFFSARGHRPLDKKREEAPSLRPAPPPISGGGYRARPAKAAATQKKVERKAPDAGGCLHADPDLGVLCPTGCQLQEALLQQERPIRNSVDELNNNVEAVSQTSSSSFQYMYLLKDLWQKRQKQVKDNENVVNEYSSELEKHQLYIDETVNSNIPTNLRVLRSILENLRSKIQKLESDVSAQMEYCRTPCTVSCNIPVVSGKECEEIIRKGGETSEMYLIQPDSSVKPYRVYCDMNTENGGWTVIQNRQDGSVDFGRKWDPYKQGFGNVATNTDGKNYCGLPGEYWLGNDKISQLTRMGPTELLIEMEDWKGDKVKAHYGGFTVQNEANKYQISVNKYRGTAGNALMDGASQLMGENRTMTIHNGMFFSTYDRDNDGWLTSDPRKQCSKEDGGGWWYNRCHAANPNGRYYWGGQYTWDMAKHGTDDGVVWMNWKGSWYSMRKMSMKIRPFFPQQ
Test [11] deals with HEK293. Kind of test: optical interference in Abeta FP readout, dose response, artefact control for IDE activator project, biochemical, fluorescence polarization (AID 588442). The test is classed as functional, cell-based. Particulars: Homo sapiens.
Test [12] addresses T3, Insulin-degrading enzyme. In words: activators of recombinant IDE enzyme, dose response, counter-screen for IDE activator project, biochemical, fluorescence polarization (AID 588681). A general note: The purpose of a counterscreen is to sort out artefacts and off-target activity.
In test [13] the target is T4, Fibrinogen beta chain. In words: Fluorescence polarization-based biochemical high throughput dose response assay to identify inhibitors that disrupt the binding of a cyclic peptide (Tn6) to the fibrin proteolytic product D-Dimer and fragment E complex [DD(E )].
The subject of a further test is Candida albicans. Kind of test: growth inhibition of resistant C. albicans, dose response, CaCi-8, fluconazole, Alamar Blue, dry powder (AID 488807). Format: functional, organism-based. (The colour change of resazurin is a common sign of viable cells or microbes.)
In another test the test system is NIH3T3. Kind of test: cytotoxicity in NIH-3T3 fibroblasts, dose response, cytotoxicity control for antifungal drug resistance project, cell-based, Alamar Blue, fluconazole, dry powder (AID 488809). Format: functional. To be noted: Mus musculus.
Test [14] can be described thus: Fluorescence polarization-based biochemical high throughput dose response assay for activators of the Protein Kinase A-R2B (PKA-R2B) complex. [Related pubchem assays (depositor defined):AID504700, AID504704, AID504796, AID504797].
Test [15] in a line: Fluorescence polarization-based biochemical high throughput dose response assay for activators of the Protein Kinase A-R1A (PKA-R1A) complex. [Related pubchem assays (depositor defined):AID504704, AID504707, AID504799, AID504800].
The target in test [16] is Dual specificity protein phosphatase 3 (Homo sapiens, UniProt P51452). Kind of test: SAR VHR1 Fluorescent Assay for In Vitro dose response studies Set 3. [Related pubchem assays (depositor defined):AID1654, AID1661, AID1878]. The test is classed as functional.
Sequence of Dual specificity protein phosphatase 3 (P51452 whole entry): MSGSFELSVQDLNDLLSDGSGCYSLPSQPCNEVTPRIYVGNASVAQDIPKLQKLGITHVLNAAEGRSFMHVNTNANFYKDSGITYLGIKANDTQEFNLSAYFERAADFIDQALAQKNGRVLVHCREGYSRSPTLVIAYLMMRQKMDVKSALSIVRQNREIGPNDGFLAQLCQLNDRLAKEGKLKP
Another test concerns the target Cysteine protease ATG4B (Homo sapiens, UniProt Q9Y4P1). Format: functional.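 Also: Fluorescence-based dose-response confirmation assay measuring inhibition of ATG4B activity.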
Test [17] deals with Streptococcus sp. 'group A'. In words: growth inhibition of control SK(-) GAS strain, dose response, counter-screen for streptokinase expression inhibitor project, luminescence, kanamycin, BacTiterGlo, confirmation (AID 1900). The test is classed as functional, organism-based.
The subject of another test is Streptococcus. Kind of test: Group A Streptococcus viability loss, dose response, counter-screen for streptokinase expression inhibitor project, luminescence, BacTiterGlo (AID 1915).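 Also: potency for reduction of bacterial viability or growth.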 Format: functional, organism-based.
Another test deals with T5, Streptokinase A (Streptococcus pyogenes serotype M1, UniProt P10520).
T5 sequence (P10520 whole entry): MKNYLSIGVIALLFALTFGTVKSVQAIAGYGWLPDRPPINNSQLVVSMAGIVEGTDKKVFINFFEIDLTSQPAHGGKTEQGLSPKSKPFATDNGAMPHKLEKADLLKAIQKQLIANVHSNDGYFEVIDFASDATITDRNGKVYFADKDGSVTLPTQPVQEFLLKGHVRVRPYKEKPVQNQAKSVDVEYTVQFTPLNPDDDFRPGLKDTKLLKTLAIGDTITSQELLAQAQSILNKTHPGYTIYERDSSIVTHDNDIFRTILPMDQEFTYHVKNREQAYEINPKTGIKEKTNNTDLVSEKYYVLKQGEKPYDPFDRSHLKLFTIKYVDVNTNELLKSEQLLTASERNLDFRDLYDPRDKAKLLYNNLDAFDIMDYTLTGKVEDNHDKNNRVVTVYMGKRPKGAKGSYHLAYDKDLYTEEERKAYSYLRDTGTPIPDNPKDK
Kind of test: S. pyogenes streptokinase expression inhibitors, potency, dose response, plasminogen activation absorbance, OD405 (AID 1914).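 Also: secreted streptokinase activity via plasminogen activation per viability signal from cell pellet.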 Format: functional, Streptococcus pyogenes M1 GAS.

The next test has as its target Phospholipase A2 (Homo sapiens, UniProt P04054). Format: functional.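 Also: confirmatory dose-response counterscreen on phospholipase A2, testing hits that came from an ultra-high-throughput screen for ATG4B inhibitors.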

Calls of active or inactive are those of the source. Bounds are passed on as bounds.

Sequence of Cysteine protease ATG4B (Q9Y4P1 whole entry): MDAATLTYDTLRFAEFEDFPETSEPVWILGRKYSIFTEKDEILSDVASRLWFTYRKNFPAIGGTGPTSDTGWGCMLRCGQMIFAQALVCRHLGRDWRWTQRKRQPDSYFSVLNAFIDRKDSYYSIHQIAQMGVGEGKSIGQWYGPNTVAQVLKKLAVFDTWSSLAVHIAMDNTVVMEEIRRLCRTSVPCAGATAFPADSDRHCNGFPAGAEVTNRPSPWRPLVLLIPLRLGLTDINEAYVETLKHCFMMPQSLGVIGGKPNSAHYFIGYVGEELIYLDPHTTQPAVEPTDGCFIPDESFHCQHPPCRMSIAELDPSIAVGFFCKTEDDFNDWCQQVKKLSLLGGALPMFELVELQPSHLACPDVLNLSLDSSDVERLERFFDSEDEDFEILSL
Sequence of Phospholipase A2 (P04054 whole entry): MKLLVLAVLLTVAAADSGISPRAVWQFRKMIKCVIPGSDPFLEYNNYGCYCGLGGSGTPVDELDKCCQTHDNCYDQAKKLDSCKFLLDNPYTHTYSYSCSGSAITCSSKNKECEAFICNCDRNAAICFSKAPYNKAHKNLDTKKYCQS
Sequence of UDP-galactopyranose mutase (P9WIQ1 whole entry): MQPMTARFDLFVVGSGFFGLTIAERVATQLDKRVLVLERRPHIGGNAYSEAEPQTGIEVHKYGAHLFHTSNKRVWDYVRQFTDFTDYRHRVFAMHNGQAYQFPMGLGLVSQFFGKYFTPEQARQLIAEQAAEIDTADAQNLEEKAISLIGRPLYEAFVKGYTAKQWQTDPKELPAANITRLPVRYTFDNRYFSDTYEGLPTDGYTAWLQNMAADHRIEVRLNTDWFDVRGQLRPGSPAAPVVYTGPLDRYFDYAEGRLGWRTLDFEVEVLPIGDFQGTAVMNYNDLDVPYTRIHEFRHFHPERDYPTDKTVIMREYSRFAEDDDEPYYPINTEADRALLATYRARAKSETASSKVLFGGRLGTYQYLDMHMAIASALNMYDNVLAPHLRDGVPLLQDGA

Consider `CCN1C(C)=C(C)S/C1=C1\SC(=S)N(C2CCCCC2)C1=O`, for which the CC50 in the test with MEF was > 99 µM (inactive). Besides, the EC50 was > 99 µM (inactive) in [1], 29.1 µM (inactive) in test [2], > 99 µM (inactive) in test [3] and 22.4 µM (inactive) in test [4].

For the compound `COc1ccc(N2C(=O)C3C(c4ccc(OC)cc4O)NC(Cc4ccccc4)(C(=O)O)C3C2=O)cc1` (stereo unspecified), the IC50 (in test [5]; in the test with HEK293 [6]) was > 67.5 µM (inactive) throughout.

For the compound `Oc1ccc2ccc3cccc[n+]3c2c1`, the results for the AC50 (at ORF 73; in test [7]) were 1.61 µM (active) and 3.84 µM (active), respectively. Besides, the values for the IC50 with HEK293 [8], on Fibrinogen beta chain [10] and at Fibrinogen beta chain [13] were > 89.2 µM (inactive), > 9.26 µM (active) and > 83.3 µM (inactive), respectively. The EC50 is > 54.7 µM (inactive) on Insulin-degrading enzyme [9]; 1.21 µM (active) on Troponin, cardiac muscle; > 54.7 µM (inactive) with HEK293 [11]; > 54.7 µM (inactive) on Insulin-degrading enzyme [12].

In the case of `CC1CCN(C(=O)Cn2c3ccc(F)cc3c3nc4n(c(=O)c32)CCCS4)CC1`, the AC50 in the test with Candida albicans is 2.96 µM (active); in the test on NIH3T3 it was 41.8 µM (active).

Take `Nc1nc(O)c2nc(Br)n([C@@H]3O[C@@H]4COP(=O)(O)O[C@H]4[C@H]3O)c2n1`: the figures for the EC50 in test [14] and in [15] were 2.15 µM (active) and 7.83 µM (active), respectively.

As to `COc1ccc(C(=O)Nc2cc(C)nn2-c2nc3ccccc3s2)cc1`, the IC50 in test [16] was 36.3 µM (active).

For the compound `COc1cc(/C=C2\S/C(=N\c3ccccc3)N(CCc3c[nH]c4ccccc34)C2=O)ccc1OC(C)C(=O)O` (stereo unspecified), the results for the IC50 at Cysteine protease ATG4B and at Phospholipase A2 were 8.13 µM (active) and 5.47 µM (active), respectively. Further, the concentration giving a half-maximal response (EC50) in test [17] was 0.943 µM (active); in the test with Streptococcus, 11.5 µM (active); at Streptokinase A it was 4.12 µM (active).

As a reminder, the CC50 is the concentration giving 50% cytotoxicity. In general, EC50 refers to the concentration at which the effect is half-maximal. As usually defined, the IC50 is the concentration that gives 50% inhibition. What is called AC50 is the concentration at which the activity in the assay is half-maximal.

These data come from ChEMBL document CHEMBL1201862, “PubChem BioAssay data set” (2004).
